Data as given in patent publication US8604046B2, “Substituted piperidine spiro pyrrolidinone and piperidinone, preparation and therapeutic use thereof” (Sanofi, priority 2008, dated 2013).

Key:
[1] = biological target: T1, rhesus H3 receptor (Macaca mulatta, UniProt Q865E1); experiment: Rhesus H3 [3H]-methylhistamine radioligand binding assay; design: species or system rhesus monkey (Macacca Mulatta); conditions: [3H]-Methylhistamine 2 nM, rhesus H3 membranes, WGA SPA beads, Cheng-Prusoff
Procedure: (§1) Rhesus H3 membranes were prepared from the Flp-In T-REx 293 Cell Line (Invitrogen) stably transfected with pcDNA5/FRT/TO (Invitrogen) containing the rhesus monkey (Macacca Mulatta) 445 amino acid H3 receptor. (Genbank #AY231164). Stably transfected cultures were amplified in tissue culture flasks by standard tissue culture methods and induced to express rhesus H3 by exposure to 500 ng/ml tetracycline (Cellgro) for 24 hours. After induction, cells were dissociated from flasks utilizing Cell Stripper (Cellgro). Cells were centrifuged (1K×g, 5 min) and pellet frozen in an ethanol-dry ice bath to disrupt cell membranes. Frozen cell pellet was re-suspended in 5 mM HEPES (pH 7.4, Invitrogen) at 10 ml/1000 cm2 of harvested cells. The cell suspension was drawn through an 18 gauge needle (2-3×) followed by a 23 gauge needle (2-3×) to further disrupt cell membranes. The cell suspension was centrifuged (40K×g, 30 min). Cell membrane pellet was re-suspended in 5 mM HEPES (pH 7.4, Invitrogen) at a final protein concentration of 10 mg/ml. Rhesus H3 membranes were stored under liquid nitrogen prior to use in [3H]-Methylhistamine and GTP S radioligand binding assays.
Rhesus H3 radioligand binding assay was performed using rhesus H3 receptor membranes (prepared as described above), [3H]-Methylhistamine (Perkin Elmer) and WGA SPA beads (wheat germ agglutinin scintillation proximity assay) beads (Amersham). The assay was performed in 96-well Opti-Plates (Packard). Each reaction contained 50 μl rhesus H3 membranes (20-30 μg total protein), 50 μl WGA SPA beads (0.1 μg) and 50 μl of 83 Ci/mmol [^3H]-Methylhistamine (final concentration 2 nM) and 50 μl of tested compound. The compounds of this invention and/or vehicle were diluted with binding buffer from 10 mM DMSO stocks. Assay plates were sealed with TopSeal (Perkin Elmer) and mixed on shaker (25° C., 1 hour). Assay plates were read on TopCount scintillation counter (Packard). Results were analyzed by Hill transformation and Ki values were determined by Cheng-Prusoff equation.

[2] = biological target: T1, rhesus H3 receptor; experiment: GTPγS radioligand binding assay, inhibition of rhesus H3 constitutive functional activity (inverse agonism); assay type: biochemical, rhesus monkey (Macacca Mulatta); design: concentration or dose not given beside the values; conditions: rhesus H3 cell membranes, relative to basal levels
Procedure: as §1

T1 sequence (Q865E1 1-445): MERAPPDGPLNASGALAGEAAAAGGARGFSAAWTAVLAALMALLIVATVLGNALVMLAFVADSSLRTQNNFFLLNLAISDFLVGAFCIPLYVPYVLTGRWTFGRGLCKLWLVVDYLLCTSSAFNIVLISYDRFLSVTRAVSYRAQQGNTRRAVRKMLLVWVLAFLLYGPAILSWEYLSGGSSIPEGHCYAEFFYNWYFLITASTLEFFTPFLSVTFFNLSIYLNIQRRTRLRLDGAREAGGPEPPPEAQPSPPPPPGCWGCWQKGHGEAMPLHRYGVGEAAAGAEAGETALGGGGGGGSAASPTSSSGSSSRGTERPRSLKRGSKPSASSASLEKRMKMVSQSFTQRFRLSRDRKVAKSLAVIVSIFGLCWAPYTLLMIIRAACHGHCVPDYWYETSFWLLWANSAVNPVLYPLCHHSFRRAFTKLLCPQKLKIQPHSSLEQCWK

| SMILES | Ki [1] | Inverse Agonism: % inhibition of Basal GTPγS binding in Rhesus H3 [2] |
| --- | --- | --- |
| Cc1cc(N2CC[C@H](N3CCC[C@@H]3C)C2)ccc1N1CCCC2(CCN(C(=O)c3ccoc3)CC2)C1=O [Example 27, 9-(Furan-3-carbonyl)-2-[2-methyl-4-((2S,3′S)-2-methyl-[1,3′]bipyrrolidinyl-1′-yl)-phenyl]-2,9-diaza-spiro[5.5]undecan-1-one] | 1.6 nM | −19% |
| C[C@H]1CCCN1[C@H]1CCN(c2ccc(N3CCCC4(CCN(C(=O)c5ccccc5)CC4)C3=O)cc2)C1 [Example 28, 9-Benzoyl-2-[4-((2S,3′S)-2-methyl-[1,3′]bipyrrolidinyl-1′-yl)-phenyl]-2,9-diaza-spiro[5.5]undecan-1-one] | 0.5 nM | −15% |
| C[C@H]1CCCN1[C@H]1CCN(c2ccc(N3CCCC4(CCN(C(=O)c5ccc(F)cc5)CC4)C3=O)cc2)C1 [Example 29] | 0.4 nM | −17% |
| C[C@H]1CCCN1[C@H]1CCN(c2ccc(N3CCCC4(CCN(C(=O)C5CCCCC5)CC4)C3=O)c(F)c2)C1 [Example 30, 9-Cyclohexanecarbonyl-2-[2-fluoro-4-((2S,3′S)-2-methyl-[1,3′]bipyrrolidinyl-1′-yl)-phenyl]-2,9-diaza-spiro[5.5]undecan-1-one] | 0.7 nM | −22% |
| C[C@H]1CCCN1[C@H]1CCN(c2ccc(N3CCCC4(CCN(C(=O)C5CCOCC5)CC4)C3=O)c(F)c2)C1 [Example 31, 2-[2-Fluoro-4-((2S,3′S)-2-methyl-[1,3′]bipyrrolidinyl-1′-yl)-phenyl]-9-(tetrahydro-pyran-4-carbonyl)-2,9-diaza-spiro[5.5]undecan-1-one] | 0.4 nM | −19% |
| Cc1cc(N2CC[C@H](N3CCC[C@@H]3C)C2)ccc1N1CCCC2(CCN(C(C)C)CC2)C1=O [Example 32, 9-Isopropyl-2-[2-methyl-4-((2S,3′S)-2-methyl-[1,3′]bipyrrolidinyl-1′-yl)-phenyl]-2,9-diaza-spiro[5.5]undecan-1-one] | 0.4 nM | −14% |
| Cc1cc(N2CC[C@H](N3CCC[C@@H]3C)C2)ccc1N1CCCC2(CCN(CC3CCCCC3)CC2)C1=O [Example 33, 9-Cyclohexylmethyl-2-[2-methyl-4-((2S,3′S)-2-methyl-[1,3′]bipyrrolidinyl-1′-yl)-phenyl]-2,9-diaza-spiro[5.5]undecan-1-one] | 0.2 nM | −14% |
| C[C@H]1CCCN1[C@H]1CCN(c2ccc(N3CCCC4(CCN(CC5CC5)CC4)C3=O)cc2)C1 [Example 34, 9-Cyclopropylmethyl-2-[4-((2S,3′S)-2-methyl-[1,3′]bipyrrolidinyl-1′-yl)-phenyl]-2,9-diaza-spiro[5.5]undecan-1-one] | 0.2 nM | −16% |
| C[C@H]1CCCN1[C@H]1CCN(c2ccc(N3CCCC4(CCN(C5CCOCC5)CC4)C3=O)cc2)C1 [Example 35, 2-[4-((2S,3′S)-2-Methyl-[1,3′]bipyrrolidinyl-1′-yl)-phenyl]-9-(tetrahydro-pyran-4-yl)-2,9-diaza-spiro[5.5]undecan-1-one] | 0.04 nM | −18% |
| C[C@H]1CCCN1[C@H]1CCN(c2ccc(N3CCCC4(CCN(Cc5ccccc5)CC4)C3=O)c(F)c2)C1 [Example 36, 9-Benzyl-2-[2-fluoro-4-((2S,3′S)-2-methyl-[1,3′]bipyrrolidinyl-1′-yl)-phenyl]-2,9-diaza-spiro[5.5]undecan-1-one] | 0.06 nM | −13% |
| C[C@H]1CCCN1[C@H]1CCN(c2ccc(N3CCCC4(CCN(Cc5ccco5)CC4)C3=O)c(F)c2)C1 [Example 37, 2-[2-Fluoro-4-((2S,3′S)-2-methyl-[1,3′]bipyrrolidinyl-1′-yl)-phenyl]-9-furan-2-ylmethyl-2,9-diaza-spiro[5.5]undecan-1-one] | 0.1 nM | −17% |
| C[C@H]1CCCN1C1CCN(c2ccc(N3CCC4(CCN(C(=O)OC(C)(C)C)CC4)C3=O)cc2)CC1 [Example 38, 2-{4-[4-(2S-2-Methyl-pyrrolidin-1-yl)-piperidin-1-yl]-phenyl}-1-oxo-2,8-diaza-spiro[4,5]decane-8-carboxylic acid tert-butyl ester] | 0.008 nM | −25% |
| C[C@H]1CCCN1C1CCN(c2ccc(N3CCC4(CCN(C(=O)OC(C)(C)C)CC4)C3=O)c(C(F)(F)F)c2)CC1 [Example 39, 2-{4-[4-(2S-2-Methyl-pyrrolidin-1-yl)-piperidin-1-yl]-2-trifluoromethyl-phenyl}-1-oxo-2,8-diaza-spiro[4.5]decane-8-carboxylic acid tert-butyl ester] | 0.9 nM | −22% |
| C[C@H]1CCCCN1[C@H]1CCN(c2ccc(N3CCC4(CCN(C(=O)OC(C)(C)C)CC4)C3=O)cc2)C1 [Example 41, 2-{4-[3-((2S,3′S)-2-Methyl-piperidin-1-yl)-pyrrolidin-1-yl]-phenyl}-1-oxo-2,8-diaza-spiro[4.5]decane-8-carboxylic acid tert-butyl ester] | 5.6 nM | −14% |
| C[C@H]1CCCCN1[C@H]1CCN(c2ccc(N3CCC4(CCN(C(=O)OC(C)(C)C)CC4)C3=O)c(C(F)(F)F)c2)C1 [Example 42, 2-{4-[3-((2S,3′S)-2-Methyl-piperidin-1-yl)-pyrrolidin-1-yl]-2-trifluoromethyl-phenyl}-1-oxo-2,8-diaza-spiro[4.5]decane-8-carboxylic acid tert-butyl ester] | 64 nM | −15% |
| C[C@H]1CCCCN1[C@H]1CCN(c2ccc(N3CCC4(CCN(C(=O)OC(C)(C)C)CC4)C3=O)c(F)c2)C1 [Example 43, 2-{4-[3-((2S,3′S)-2-Methyl-piperidin-1-yl)-pyrrolidin-1-yl]-2-fluoro-phenyl}-1-oxo-2,8-diaza-spiro[4.5]decane-8-carboxylic acid tert-butyl ester] | 4.3 nM | −19% |
| C[C@H]1CCCN1C1CCN(c2ccc(N3CCC4(CCNCC4)C3=O)cc2)CC1.Cl [Example 44, 2-{4-[4-(2S-2-Methyl-pyrrolidin-1-yl)-piperidin-1-yl]-phenyl}-2,8-diaza-spiro[4.5]decan-1-one Hydrochloride] | 0.1 nM | −19% |
| C[C@H]1CCCN1C1CCN(c2ccc(N3CCC4(CCNCC4)C3=O)c(C(F)(F)F)c2)CC1.Cl [Example 45, 2-{4-[4-(2S-2-Methyl-pyrrolidin-1-yl)-piperidin-1-yl]-2-trifluoromethyl-phenyl}-2,8-diaza-spiro[4.5]decan-1-one Hydrochloride] | 0.15 nM | −19% |
| C[C@H]1CCCN1C1CCN(c2ccc(N3CCC4(CCNCC4)C3=O)c(F)c2)CC1.Cl [Example 46, 2-{4-[4-(2S-2-Methyl-pyrrolidin-1-yl)-piperidin-1-yl]-2-fluoro-phenyl}-2,8-diaza-spiro[4.5]decan-1-one Hydrochloride] | 0.1 nM | −24% |
| C[C@H]1CCCCN1[C@H]1CCN(c2ccc(N3CCC4(CCNCC4)C3=O)cc2)C1.Cl [Example 47, 2-{4-[3-((2S,3′S)-2-Methyl-piperidin-1-yl)-pyrrolidin-1-yl]-phenyl}-2,8-diaza-spiro[4.5]decan-1-one Hydrochloride] | 0.4 nM | −17% |
| C[C@H]1CCCCN1[C@H]1CCN(c2ccc(N3CCC4(CCNCC4)C3=O)c(C(F)(F)F)c2)C1.Cl [Example 48, 2-{4-[3-((2S,3′S)-2-Methyl-piperidin-1-yl)-pyrrolidin-1-yl]-2-trifluoromethyl-phenyl}-2,8-diaza-spiro[4.5]decan-1-one Hydrochloride] | 0.6 nM | −24% |
| C[C@H]1CCCCN1[C@H]1CCN(c2ccc(N3CCC4(CCNCC4)C3=O)c(F)c2)C1.Cl [Example 49, 2-{4-[3-((2S,3′S)-2-Methyl-piperidin-1-yl)-pyrrolidin-1-yl]-2-fluoro-phenyl}-2,8-diaza-spiro[4.5]decan-1-one Hydrochloride] | 0.5 nM | −22% |
| C[C@H]1CCCN1C1CCN(c2ccc(N3CCC4(CCN(S(=O)(=O)c5ccccc5)CC4)C3=O)cc2)CC1 [Example 50, 8-Benzenesulfonyl-2-{4-[4-(2S-2-methyl-pyrrolidin-1-yl)-piperidin-1-yl]-phenyl}-2,8-diaza-spiro[4.5]decan-1-one] | 0.24 nM | −23% |
